# Patent US9526785B2, “Pharmaceuticals for oral delivery” (Enteris BioPharma, Inc., priority 2013, dated 2016)
# Columns and labels:
# [1] = Tigecycline plasma PK after IV bolus in anesthetized rats; type: in vivo; details: female, Sprague-Dawley, rat
# Procedure: Naïve, female Sprague-Dawley Rats (Taconic Farms, Germantown, N.Y.) housed in groups of three were maintained in a climate-controlled room on a 12:12 h light-dark cycle with food and water available ad libitum. Animals weighed approximately 250 g at the time of testing. Rats were fasted overnight (with water available), prior to dosing. Tigecycline stock was prepared fresh on the day of each study in water and diluted in the indicated formulations.
# Intravenous (IV) doses were administered as a bolus injection into the left carotid […] at a dose volume of 1.6 mL/kg. Intraduodenal doses were administered as bolus injections into the duodenum at a dose volume of 1.2 mL/kg.
# Female rats were maintained in groups of 3 per polycarbonate (or equivalent) shoebox cage with fresh wood chip bedding at 20-22° C. under a 12 hour on/off light:dark cycle. The rats were fasted overnight prior to surgery and anesthetized by intramuscular injection of 0.3 mL fresh ketamine (67 mg/mL)/xylazine (42 mg/mL) in 0.9% saline into the hind flank. After the rats went limp they were injected intraperitoneally (IP) with 0.1 mL ketamine/xylazine. The anesthetic state was maintained by IP injection of ketamine/xylazine on an as needed basis. Animal weights were determined post-anesthesia induction.
# An indwelling catheter for blood sampling was inserted into the right carotid artery by exposing the trachea with Mayo scissors, clamping the bottom of the […] and tying off the top with surgical suture. The area between was nicked with small sharp scissors and Intramedic polyethylene tubing was inserted into the nicked area. The artery with the tubing was sealed with suture to prevent leakage. A 23-gauge Intramedic Luer Stub Adapter was inserted into the cannula and attached to a 3 way valve which was connected to a 3 cc syringe filled with 0.9% normal saline and a 1 cc syringe filled with 5 U/mL sodium heparin for blood sampling.
# Blood samples were collected in tubes containing 20 μL 180 mM EDTA. The tubes were maintained on ice and then centrifuged at approximately 3000 rpm at 4° C. for 5 minutes. Plasma was harvested immediately after centrifugation of the samples and stored at −20° C. pending analysis.
# Minocycline (VWR international) was used as an internal standard. Sample processing/clean-up of plasma samples was carried out offline by protein precipitation with acidified acetonitrile.
# The HPLC system consisted of Shimadzu SIL-HTc HPLC system equipped with dual Shimadzu LC-10ADvp isopumps, a Shimadzu CTO-10ASvp column temperature controller and a Shimadzu SPD-10Avp variable wavelength detector. […] Mobile phase A consisted of 23 mM phosphate buffer pH 2.5 with 6 mM 1-octanesulfonic acid, while mobile phase B consisting of pure acetonitrile. […] The mobile phase flow rate was 1.2 mL/min. Detection was performed using the SPD-10Avp variable wavelength detector set at 350 nm, with a sensitivity of 0.001 aufs.
# The samples were then centrifuged under refrigeration at 13 k rpm for 30 minutes. The supernatant was taken and the liquid was removed to dryness in a turbovap. The samples were then reconstituted in 55 μL 0.1M phosphate buffer, pH 3.8. Samples were maintained at 10° C. while on the autoinjector during sequence. The injection volume was 50 μL. The unknown concentration in rat plasma samples was determined by interpolation of the peak area ratios of analyte:internal standard versus the ratio of their nominal concentrations into the regression line obtained from calibration standards spiked in pooled rat plasma. No regression weighting was used for the calculations. […] The calibration curve covered the range of 0.05 μg/mL to 5.0 μg/mL.
# Due to analytical issues observed in the analyses of earlier study samples, the analytical method was changed slightly for later samples. Mobile phase A was changed to 23 mM phosphate buffer pH 2.5 with 4 mM 1-octanesulfonic acid, while mobile phase B was changed to 90% acetonitrile, 10% water, with 2 mM 1-octanesulfonic acid. […]
# [2] = system: Methicillin-Resistant Staphylococcus aureus (MRSA), Stenotrophomonas maltophilia, Haemophilus influenzae, and Neisseria gonorrhoeae; details: reported values; cited from earlier work
# [3] = IV bolus 0.64 mg/kg, PBS (RA851)
smiles,measurement,setting,value
CN(C)c1cc(NC(=O)CNC(C)(C)C)c(O)c2c1C[C@H]1C[C@H]3[C@H](N(C)C)C(O)=C(C(N)=O)C(=O)[C@@]3(O)C(O)=C1C2=O [Tigecycline],AUC(0-t),[1]; [3],970 ng·h/mL
same,Cmax,[1]; [3],1790 ng/mL
same,Tmax,[1]; [3],5 min
same,concentration at 0 min,[1]; [3],0 ng/mL
same,concentration at 5 min,[1]; [3],1790 ng/mL
same,concentration at 10 min,[1]; [3],888 ng/mL
same,concentration at 20 min,[1]; [3],447 ng/mL
same,concentration at 30 min,[1]; [3],376 ng/mL
same,concentration at 60 min,[1]; [3],290 ng/mL
same,concentration at 120 min,[1]; [3],216 ng/mL
same,concentration at 240 min,"[1]; IV bolus 0.64 mg/kg, PBS (RA851), 240 min",116 ng/mL
same,AUC(0-t),"[1]; IV bolus 12 mg/kg, PBS (RA853)",13200 ng·h/mL
same,Cmax,"[1]; IV bolus 12 mg/kg, PBS (RA853)",50700 ng/mL
same,Tmax,"[1]; IV bolus 12 mg/kg, PBS (RA853)",5 min
same,concentration at 0 min,"[1]; IV bolus 12 mg/kg, PBS (RA853)",0 ng/mL
same,concentration at 5 min,"[1]; IV bolus 12 mg/kg, PBS (RA853)",50700 ng/mL
same,concentration at 10 min,"[1]; IV bolus 12 mg/kg, PBS (RA853)",26200 ng/mL
same,concentration at 20 min,"[1]; IV bolus 12 mg/kg, PBS (RA853)",9310 ng/mL
same,concentration at 30 min,"[1]; IV bolus 12 mg/kg, PBS (RA853)",5760 ng/mL
same,concentration at 60 min,"[1]; IV bolus 12 mg/kg, PBS (RA853)",2610 ng/mL
same,concentration at 120 min,"[1]; IV bolus 12 mg/kg, PBS (RA853)",1870 ng/mL
same,AUC(0-t),"[1]; RA869, IV, 0.6 mg/kg",132 ng·h/mL
same,Cmax,"[1]; RA869, IV, 0.6 mg/kg",369 ng/mL
same,Tmax,"[1]; RA869, IV, 0.6 mg/kg",7.5 min
same,MIC,[2],2 µg/mL
